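Each compound was tested at five concentrations against cells in 96-well plates for 48 hours. At the GI50, growth is halved.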 Activity calls are given as the source filed them. Cut-off read from the data, not from the text of the source: active = GI50 up to about 1.1 µM and inactive = higher.
Legend:
Test in all cases: inhibition of tumour cell growth, NCI panel, 48 h
MDA-MB-435 = system: MDA-MB-435
OVCAR-5 = system: OVCAR-5
SF-539 = system: SF-539
TK-10 = system: TK-10
HCT-15 = system: HCT-15
RPMI-8226 = system: RPMI-8226
A549 = system: A549
MDA-N = system: MDA-N
SK-MEL-5 = system: SK-MEL-5
K562 = system: K562
CAKI-1 = system: CAKI-1
Malme-3M = system: Malme-3M
M14 = system: M14
SK-MEL-28 = system: SK-MEL-28
HOP-92 = system: HOP-92
MDA-MB-231 = system: MDA-MB-231
SK-OV-3 = system: SK-OV-3
IGROV-1 = system: IGROV-1
NCI-H23 = system: NCI-H23
T47D = system: T47D
UACC-257 = system: UACC-257
SF-268 = system: SF-268
BT-549 = system: BT-549
SF-295 = system: SF-295
HCT-116 = system: HCT-116
OVCAR-4 = system: OVCAR-4
CCRF-CEM = system: CCRF-CEM
SNB-75 = system: SNB-75
ACHN = system: ACHN
DU-145 = system: DU-145
NCI/ADR-RES = system: NCI/ADR-RES
SK-MEL-2 = system: SK-MEL-2
UO-31 = system: UO-31
U-251 = system: U-251
SN12C = system: SN12C
OVCAR-8 = system: OVCAR-8
EKVX = system: EKVX
LOX IMVI = system: LOX IMVI
KM12 = system: KM12
MCF7 = system: MCF7
OVCAR-3 = system: OVCAR-3
HCC 2998 = system: HCC 2998
COLO 205 = system: COLO 205
SW-620 = system: SW-620
HOP-62 = system: HOP-62
HT-29 = system: HT-29
786-0 = system: 786-0
MOLT-4 = system: MOLT-4
A498 = system: A498
NCI-H522 = system: NCI-H522
SNB-19 = system: SNB-19
NCI-H226 = system: NCI-H226
PC-3 = system: PC-3
NCI-H460 = system: NCI-H460
RXF 393 = system: RXF 393
Hs-578T = system: Hs-578T
HL-60 = system: HL-60
SR = system: SR
UACC-62 = system: UACC-62

## CCOC(=O)C1=CC(C)(C(=O)OCC)Nc2c(nc(SC)n(C)c2=O)N1 (stereo unspecified)
MDA-MB-435
  GI50: > 10 µM (inactive)
OVCAR-5
  GI50: > 10 µM (inactive)
SF-539
  GI50: > 10 µM (inactive)
TK-10
  GI50: > 10 µM (inactive)
HCT-15
  GI50: > 10 µM
RPMI-8226
  GI50: > 10 µM (inactive)
A549
  GI50: > 10 µM (inactive)
MDA-N
  GI50: > 10 µM (inactive)
SK-MEL-5
  GI50: > 10 µM (inactive)
K562
  GI50: > 10 µM (inactive)
CAKI-1
  GI50: > 10 µM (inactive)
Malme-3M
  GI50: > 10 µM (inactive)
M14
  GI50: > 10 µM (inactive)
SK-MEL-28
  GI50: > 10 µM (inactive)
HOP-92
  GI50: > 10 µM (inactive)
MDA-MB-231
  GI50: > 10 µM (inactive)
SK-OV-3
  GI50: > 10 µM (inactive)
IGROV-1
  GI50: > 10 µM (inactive)
NCI-H23
  GI50: > 10 µM (inactive)
T47D
  GI50: > 10 µM (inactive)
UACC-257
  GI50: > 10 µM (inactive)
SF-268
  GI50: > 10 µM (inactive)
BT-549
  GI50: > 10 µM (inactive)
SF-295
  GI50: > 10 µM (inactive)
HCT-116
  GI50: > 10 µM (inactive)
OVCAR-4
  GI50: > 10 µM (inactive)
CCRF-CEM
  GI50: > 10 µM (inactive)
SNB-75
  GI50: > 10 µM (inactive)
ACHN
  GI50: > 10 µM (inactive)
DU-145
  GI50: > 10 µM (inactive)
NCI/ADR-RES
  GI50: > 10 µM (inactive)
SK-MEL-2
  GI50: > 10 µM (inactive)
UO-31
  GI50: > 10 µM (inactive)
U-251
  GI50: > 10 µM (inactive)
SN12C
  GI50: > 10 µM (inactive)
OVCAR-8
  GI50: > 10 µM (inactive)
EKVX
  GI50: > 10 µM (inactive)
LOX IMVI
  GI50: > 10 µM (inactive)
KM12
  GI50: > 10 µM (inactive)
MCF7
  GI50: > 10 µM (inactive)
OVCAR-3
  GI50: > 10 µM (inactive)
HCC 2998
  GI50: > 10 µM (inactive)
COLO 205
  GI50: > 10 µM (inactive)
SW-620
  GI50: > 10 µM (inactive)
HOP-62
  GI50: > 10 µM (inactive)
HT-29
  GI50: > 10 µM (inactive)
786-0
  GI50: > 10 µM (inactive)
MOLT-4
  GI50: > 10 µM (inactive)
A498
  GI50: > 10 µM (inactive)
NCI-H522
  GI50: > 10 µM (inactive)
SNB-19
  GI50: > 10 µM (inactive)
NCI-H226
  GI50: > 10 µM (inactive)
PC-3
  GI50: > 10 µM (inactive)
NCI-H460
  GI50: > 10 µM (inactive)

## CNc1ncc(-c2nnnn2-c2ccccc2)c(CN(C)C)n1
MDA-MB-435
  GI50: > 100 µM (inactive)
RXF 393
  GI50: > 100 µM (inactive)
OVCAR-5
  GI50: > 100 µM (inactive)
SF-539
  GI50: > 100 µM (inactive)
TK-10
  GI50: > 100 µM (inactive)
HCT-15
  GI50: > 100 µM
RPMI-8226
  GI50: > 100 µM (inactive)
A549
  GI50: > 100 µM (inactive)
SK-MEL-5
  GI50: > 100 µM (inactive)
K562
  GI50: > 100 µM (inactive)
CAKI-1
  GI50: > 100 µM (inactive)
Malme-3M
  GI50: > 100 µM (inactive)
M14
  GI50: > 100 µM (inactive)
SK-MEL-28
  GI50: > 100 µM (inactive)
HOP-92
  GI50: > 100 µM (inactive)
Hs-578T
  GI50: > 100 µM (inactive)
MDA-MB-231
  GI50: > 100 µM (inactive)
SK-OV-3
  GI50: > 100 µM (inactive)
IGROV-1
  GI50: > 100 µM (inactive)
NCI-H23
  GI50: > 100 µM (inactive)
T47D
  GI50: > 100 µM (inactive)
UACC-257
  GI50: > 100 µM (inactive)
SF-268
  GI50: > 100 µM (inactive)
BT-549
  GI50: > 100 µM (inactive)
SF-295
  GI50: > 100 µM (inactive)
HCT-116
  GI50: > 100 µM (inactive)
CCRF-CEM
  GI50: > 100 µM (inactive)
SNB-75
  GI50: > 100 µM (inactive)
ACHN
  GI50: > 100 µM (inactive)
DU-145
  GI50: > 100 µM (inactive)
NCI/ADR-RES
  GI50: > 100 µM (inactive)
HL-60
  GI50: > 100 µM (inactive)
SK-MEL-2
  GI50: > 100 µM (inactive)
UO-31
  GI50: > 100 µM (inactive)
U-251
  GI50: > 100 µM (inactive)
SN12C
  GI50: > 100 µM (inactive)
OVCAR-8
  GI50: > 100 µM (inactive)
EKVX
  GI50: > 100 µM (inactive)
LOX IMVI
  GI50: > 100 µM (inactive)
KM12
  GI50: > 100 µM (inactive)
MCF7
  GI50: > 100 µM (inactive)
OVCAR-3
  GI50: > 100 µM (inactive)
HCC 2998
  GI50: > 100 µM (inactive)
COLO 205
  GI50: > 100 µM (inactive)
SW-620
  GI50: > 100 µM (inactive)
HOP-62
  GI50: > 100 µM (inactive)
HT-29
  GI50: > 100 µM (inactive)
786-0
  GI50: > 100 µM (inactive)
MOLT-4
  GI50: > 100 µM (inactive)
A498
  GI50: > 100 µM (inactive)
NCI-H522
  GI50: > 100 µM (inactive)
SR
  GI50: > 100 µM (inactive)
SNB-19
  GI50: > 100 µM (inactive)
UACC-62
  GI50: > 100 µM (inactive)
NCI-H226
  GI50: > 100 µM (inactive)
PC-3
  GI50: > 100 µM (inactive)
NCI-H460
  GI50: > 100 µM (inactive)
